Data published in patent US4439434A, “Cephalosporin derivative and pharmaceutical composition containing the derivative” (Kureha Kagaku Kogyo Kabushiki Kaisha, priority 1981, dated 1984).
≈ marks a conversion by molar mass, not a printed value.

Assays:
[1] = system: Escherichia coli; experiment: Effect on the intestinal bacterial colonies: Escherichia coli in feces; assay type: in vivo; details: mice; for Logarithmic value of the number of bacterial cells per one g of feces, E. coli: oral 500 mg/kg/day for two consecutive days, feces one day after administration
Experimental: (§1) Each of the cephalosporin derivatives of the invention prepared in Examples 1 to 10 was orally administered to mice (one group consisting of five female ICR mice of 6-week-old) for two consecutive days at a dose of 500 mg/kg/day.
(§2) Before and one day after the administration, feces of each mouse were collected and diluted with an anaerobic diluent (phosphoric buffer solution) of 100 times volume and the diluted feces were ground. 0.1 ml of the diluted and ground feces was smeared on each culture medium shown in Table 1 and cultured aerobically or anaerobically (according to the anaerobic glove box method) under each condition shown in Table 1 and the number of each bacterium shown in Table 1 was counted.
DHL agar aerobic, 37° C.,

[2] = system: Pseudomonas aeruginosa; experiment: Effect on the intestinal bacterial colonies: Pseudomonas aeruginosa in feces; assay type: in vivo; details: mice, oral 500 mg/kg/day for two consecutive days, feces one day after administration
Experimental: as §1, §2
NAC agar aerobic, 37° C.,

[3] = system: Streptococcus spp.; experiment: Effect on the intestinal bacterial colonies: Streptococcus spp. in feces; assay type: in vivo; details: mice, oral 500 mg/kg/day for two consecutive days, feces one day after administration
Experimental: as §1, §2
TATAC agar aerobic, 37° C.,

[4] = system: Lactobacillus acidophilus; experiment: Effect on the intestinal bacterial colonies: Lactobacillus acidophilus in feces; assay type: in vivo; details: mice; for Logarithmic value of the number of bacterial cells per one g of feces, L. acidophilus: oral 500 mg/kg/day for two consecutive days, feces one day after administration
Experimental: as §1, §2
Lactobacillus acidophilus
LBS agar anaerobic, 37° C.,

[5] = system: Lactobacillus bifidus; experiment: Effect on the intestinal bacterial colonies: Lactobacillus bifidus in feces; assay type: in vivo; details: mice, oral 500 mg/kg/day for two consecutive days, feces one day after administration
Experimental: as §1, §2
BS agar anaerobic, 37° C.,

[6] = system: Bacteroides; experiment: Effect on the intestinal bacterial colonies: Bacteroides in feces; assay type: in vivo; details: mice, oral 500 mg/kg/day for two consecutive days, feces one day after administration
Experimental: as §1, §2
Bacteroides NBGT agar anaerobic, 37° C.,

[7] = system: Escherichia coli IFO 12734; experiment: Antibacterial activity (MIC, agar plate) against E. coli; assay type: cell-based; details: Escherichia coli IFO 12734, Mueller-Hinton agar, 37° C., 18 to 24 hours; unit assumed
Experimental: (§3) Antibacterial activity of each of the cephalosporin derivatives of the invention prepared in Examples 1 to 10 was examined against the following two bacteria according to the standard method of Japan Society of Chemitherapy: Escherichia coli IFO 12734 and Staphylococcus aureus IAM 1011.
(§4) Each bacterial strain was inoculated into the Mueller-Hinton's culture medium and cultured at 37° C. for 18 to 48 hours. The cultured medium was diluted so as to contain 1×10^6 cells of the bacteria per one ml, and the obtained medium was used as the bacterial specimen.
(§5) Agar plates were prepared by adding one part by weight of each solution of the cephalosporin derivative of the invention at a predetermined concentration to nine parts by weight of Mueller-Hinton's culture medium.
(§6) A loopful amount of the bacterial specimen prepared above was smeared to make a streak of about 2 cm on each agar plate prepared above and cultured at 37° C. for 18 to 24 hours.
(§7) The minimum concentration for completely inhibiting proliferation of the bacteria (referred to as MIC) was determined.

[8] = system: Staphylococcus aureus IAM 1011; experiment: Antibacterial activity (MIC, agar plate) against Staph. aureus; assay type: cell-based; details: Staphylococcus aureus IAM 1011, Mueller-Hinton agar, 37° C., 18 to 24 hours; unit assumed
Experimental: as §3, §4, §5, §6, §7

[9] = system: Staphylococcus aureus IAM 1011; experiment: Activation by rat liver homogenate (S-9 mix), proliferation-inhibiting circle, penicillin cup method; assay type: cell-based; details: incubated with rat liver S-9 mix, 37° C. 20 min; circle diameter relative to the starting compound
Experimental: As an activating enzyme of metabolism, a rat liver homogenate (S-9, manufactured by Oriental Yeast Company, Japan) was used in the following composition per 1 ml (hereinafter referred to as S-9 mix). 0.1 ml of the solution of each of the cephalosporin derivatives of the invention prepared in Examples 1 to 10 at a concentration of 100 μg/ml was mixed with 0.9 ml of S-9 mix or 0.9 ml of 0.1 M phosphoric buffer solution (as a control) and the obtained mixture was incubated at 37° C. for 20 min. with shaking. Staphylococcus aureus IAM 1011 was inoculated into a Mueller-Hinton's culture medium and cultured at 37° C. for 18 hours. The culture medium was adjusted to a cell concentration of 1×10^8 per 1 ml and mixed with 50 times by volume of Mueller-Hinton's agar culture medium to obtain an agar plate. A penicillin cup of 8 mm in diameter was placed on the agar plate prepared above, and into the cup 0.1 ml of the mixture containing the cephalosporin derivative prepared above was introduced and allowed to stand at 4° C. for 2 hours, and then cultured at 37° C. for 18 hours to measure the diameter of a circle in which the proliferation of bacteria was inhibited (proliferation-inhibiting circle). In Table 4, the proliferation-inhibiting index is shown in the ratio (%) of the diameter of the proliferation-inhibiting circle obtained by using each of the cephalosporin derivatives of the invention to that obtained by using each of the starting compound in preparing each of the cephalosporin derivatives of the invention.

[10] = oral 500 mg/kg/day for two days, feces

SMILES | MIC E. coli [7] | MIC Staph. aureus [8] | Logarithmic value of the number of bacterial cells per one g of feces, E. coli [1] | Logarithmic value of the number of bacterial cells per one g of feces, Ps. aeruginosa [2] | Logarithmic value of the number of bacterial cells per one g of feces, Strept. spp. [3] | Logarithmic value of the number of bacterial cells per one g of feces, L. acidophilus [4] | Logarithmic value of the number of bacterial cells per one g of feces, L. bifidus [5] | Logarithmic value of the number of bacterial cells per one g of feces, Bacteroides [6] | Proliferation-inhibiting index (%) After adding S-9 mix [9] | change in the number of Escherichia coli as compared to that before administration [1, 10] | change in the number of Lactobacillus acidophilus [4, 10]
COC(=O)CNC(=O)c1ccc(NC(=O)C2=C(COC(C)=O)CSC3C(NC(=O)Cc4cccs4)C(=O)N23)cc1 (centres unmarked) [Example 9, N-(4-carbomethoxymethylcarbamoylphenyl)-7-(thienyl-2-acetamido)cephalosporanic acid amide] | ≥ 100 µg/mL | ≥ 12.5 µg/mL | 6.5 | < 3.0 | 7.1 | 9.3 | 8.6 | 8.1 | +++ (66-100) |  | 
COC(=O)c1ccccc1NC(=O)C1=C(COC(C)=O)CSC2C(NC(=O)Cc3cccs3)C(=O)N12 (centres unmarked) [Example 10, N-(2-carbomethoxyphenyl)-7-(thienyl-2-acetamido)cephalosporanic acid amide] | ≥ 100 µg/mL | ≥ 12.5 µg/mL | 6.5 | < 3.0 | 6.4 | 9.0 | 8.2 | 8.0 | + (1-33) |  | 
CC(=O)OCC1=C(C(=O)O)N2C(=O)[C@@H](NC(=O)Cc3cccs3)[C@H]2SC1 [Cephalotin, cephalotin, reference compound] |  |  | 9.9 | < 3.0 | 9.0 | 4.1 | 9.2 | 7.2 |  | increased | decreased

Now from value to molecule, other results behind:

MIC E. coli [7] | MIC Staph. aureus [8] | SMILES | Logarithmic value of the number of bacterial cells per one g of feces, E. coli [1] | Logarithmic value of the number of bacterial cells per one g of feces, Ps. aeruginosa [2] | Logarithmic value of the number of bacterial cells per one g of feces, Strept. spp. [3] | Logarithmic value of the number of bacterial cells per one g of feces, L. acidophilus [4] | Logarithmic value of the number of bacterial cells per one g of feces, L. bifidus [5] | Logarithmic value of the number of bacterial cells per one g of feces, Bacteroides [6] | Proliferation-inhibiting index (%) After adding S-9 mix [9] | change in the number of Escherichia coli as compared to that before administration [1, 10] | change in the number of Lactobacillus acidophilus [4, 10]
≥ 100 µg/mL | ≥ 12.5 µg/mL | COC(=O)Cc1ccc(NC(=O)C2=C(COC(C)=O)CSC3C(NC(=O)Cc4cccs4)C(=O)N23)cc1 (centres unmarked) [Example 6, N-(4-carbomethoxymethylphenyl)-7-(thienyl-2-acetamido)cephalosporanic acid amide] | 6.8 | < 3.0 | 6.5 | 8.9 | 8.3 | 8.8 | +++ (66-100) |  | 
≥ 25 µg/mL | 0.2 µg/mL (≈ 0.378 µM) | COC(=O)c1ccc(NC(=O)C2=C(COC(C)=O)CSC3C(NC(=O)Cc4cccs4)C(=O)N23)cc1 (centres unmarked) [Example 2, N-(4-carbomethoxyphenyl)-7-(thienyl-2-acetamido)cephalosporanic acid amide] | 6.4 | < 3.0 | 6.7 | 9.1 | 8.6 | 8.1 | ++ (33-66) |  | 
